SMILES strings stand for the structures.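 These data come from cells grown in 96-well plates and exposed to compound for 48 hours at five concentrations. GI50 marks 50% less growth. TGI: concentration producing complete growth inhibition.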

Test systems include DLD-1 colon; DMS 273 small cell lung; LXFL 529 NSCLC; M19-MEL melanoma; HOP-18 NSCLC; KM20L2 colon; RXF-631 renal; XF 498 CNS; P388 leukemia; P388/ADR leukemia; SN12K1 renal.
What all share (experiment): NCI tumour cell line growth inhibition, 48 h

`c1ccc2c(c1)CCc1cc3cc4c(nc3nc1-2)-c1ccccc1CC4`: the TGI in the test with DLD-1 colon, with DMS 273 small cell lung, in the test with LXFL 529 NSCLC and in the test on M19-MEL melanoma was more than 100 µM in each case.
Turning to `CCSC1=C(C)N(C=NC(C)(C)C)CC1`, the TGI with DLD-1 colon, in the test on DMS 273 small cell lung, in the test on HOP-18 NSCLC, in the test on KM20L2 colon, in the test on LXFL 529 NSCLC and with M19-MEL melanoma was more than 100 µM in each case. Besides, the TGI in the test on RXF-631 renal and in the test with XF 498 CNS was more than 100 µM each time.
As for `O=C1NC2(CCCCC2)C2CCCCCC12` (stereo not drawn), the TGI in the test with DLD-1 colon, in the test on KM20L2 colon, with LXFL 529 NSCLC, in the test on RXF-631 renal and in the test with XF 498 CNS was more than 100 µM in each case.
In the test on KM20L2 colon, `COc1cccc(/C=N/[N-]C(N)=O)c1[O-].[Ni+2].[OH3+].c1cnc2c(c1)ccc1cccnc12` registered a TGI of more than 100 µM.
For the molecule `CCCCOP1(=O)C=C(C)C(=C(Cl)Cl)C(C)=C1` (stereo not drawn), the TGI in the test on DLD-1 colon stood at 38.9 µM; in the test on DMS 273 small cell lung, 16.6 µM; in the test on HOP-18 NSCLC, 82.2 µM; with KM20L2 colon, 5.13 µM; in the test with M19-MEL melanoma, 32.9 µM; with RXF-631 renal, 33.9 µM. The same molecule gave a TGI with XF 498 CNS of 46.2 µM.
For the molecule `C=C1C(=O)OCC2C(C(=O)O)=CC3C(C)C(C)=CC123` (stereo not drawn), the TGI in the test with DLD-1 colon turned out to be 45.7 µM; in the test on DMS 273 small cell lung it was 59.6 µM; in the test on HOP-18 NSCLC it was 34.2 µM; with KM20L2 colon, 51.1 µM; with M19-MEL melanoma, 54.6 µM; in the test on P388 leukemia, 12.7 µM. For the same molecule, the TGI with P388/ADR leukemia is 21.9 µM; with SN12K1 renal, 29.6 µM; in the test on XF 498 CNS it was 24.8 µM.
Consider `NC(N)=NNC(=O)CCCCCCCC(=O)NN=C(N)N`, for which the TGI in the test on DLD-1 colon, in the test with DMS 273 small cell lung, in the test with KM20L2 colon, in the test with LXFL 529 NSCLC, in the test with M19-MEL melanoma and in the test on RXF-631 renal was more than 100 µM throughout.
`NCCNc1cccc2ccccc12`: the TGI with DLD-1 colon, in the test on DMS 273 small cell lung, in the test on HOP-18 NSCLC, in the test with KM20L2 colon, in the test on LXFL 529 NSCLC and in the test with M19-MEL melanoma was more than 100 µM throughout. Moreover, in the test on RXF-631 renal, the TGI was more than 100 µM.
As for `CCN(c1ccc(Br)cc1)c1c(Br)c(=O)nc2ccccn12`, the TGI with DLD-1 colon, with DMS 273 small cell lung, with KM20L2 colon, with LXFL 529 NSCLC, in the test on M19-MEL melanoma and in the test on RXF-631 renal was more than 100 µM each time. For the same molecule, in the test with XF 498 CNS, the TGI was more than 100 µM.
For `Cc1cccc(NC(=O)C(=O)C(C(=O)c2ccccc2F)C2OC(=O)c3ccccc32)c1Cl` (stereo not drawn), the TGI in the test with DLD-1 colon is more than 100 µM; in the test with DMS 273 small cell lung, more than 100 µM; with KM20L2 colon, 88.5 µM; in the test on LXFL 529 NSCLC, more than 100 µM; in the test on M19-MEL melanoma, more than 100 µM; in the test with XF 498 CNS, more than 100 µM.
In the case of `CC(C)(C)C(=O)ON1N=NC2C3CC(OCc4ccccc4)(OCc4ccccc4)C(O3)C21` (stereo not drawn), the TGI was found to be 44.6 µM in the test with DLD-1 colon; 51.2 µM in the test on DMS 273 small cell lung; 94.2 µM in the test on HOP-18 NSCLC; 77.5 µM in the test with KM20L2 colon; 25.8 µM in the test on LXFL 529 NSCLC; 30 µM in the test with M19-MEL melanoma. Moreover, the TGI with RXF-631 renal turned out to be 82.1 µM; in the test with XF 498 CNS, 33.5 µM.
Take `COc1cccc(Cc2c3cc(OC)ccc3cc[n+]2C)c1`: the TGI in the test on DLD-1 colon is more than 100 µM; in the test with KM20L2 colon, more than 100 µM; in the test on LXFL 529 NSCLC, more than 100 µM; in the test with XF 498 CNS, 70.7 µM.
In the case of `O=[Se](=O)c1ccccc1.O=[Se](=O)c1ccccc1.[Cu]`, the GI50 in the test on DLD-1 colon was 18.9 µM; in the test with DMS 273 small cell lung it was 20.4 µM; in the test on HOP-18 NSCLC it was 23.4 µM; in the test on KM20L2 colon it was 18.3 µM; in the test with M19-MEL melanoma, 5.95 µM; in the test with P388 leukemia, 5.23 µM. Moreover, the GI50 in the test on P388/ADR leukemia was 3.99 µM; with SN12K1 renal, 7.41 µM; with XF 498 CNS it was 15.5 µM. Besides, the TGI in the test with DLD-1 colon worked out at 40.5 µM; in the test with DMS 273 small cell lung, 38.3 µM; in the test on HOP-18 NSCLC it was 41.1 µM; with KM20L2 colon, 35.1 µM; with M19-MEL melanoma, 15.2 µM; in the test with P388 leukemia, 29 µM. Besides, the TGI in the test with P388/ADR leukemia is 24.4 µM; in the test with SN12K1 renal it was 17.6 µM; with XF 498 CNS it was 28.9 µM.
Take `CC(=O)O[C@]12CCCC1C1(O)C(O)CCCC12` (stereo partly drawn): the TGI in the test with DMS 273 small cell lung, with HOP-18 NSCLC, in the test with KM20L2 colon, in the test with LXFL 529 NSCLC, with M19-MEL melanoma and in the test with XF 498 CNS was more than 100 µM throughout.
For `O=C(N/N=C/c1cc(Cl)cc(Cl)c1[O-])c1ccccc1O.O=C(N/N=C/c1cc(Cl)cc(Cl)c1[O-])c1ccccc1O.[Ni+2]`, in the test with KM20L2 colon, the GI50 worked out at 0.794 µM and the TGI was 2.15 µM.
Take `O=C1c2c(nc3ccccc3c2-c2ccccc2)CN1Nc1ccccn1`: the TGI with DLD-1 colon was more than 100 µM; in the test with DMS 273 small cell lung, more than 100 µM; in the test with LXFL 529 NSCLC it was more than 100 µM; in the test on M19-MEL melanoma it was more than 100 µM; with RXF-631 renal it was 50.7 µM; with XF 498 CNS it was more than 100 µM.
As for `COc1cc(/C=C2\CCC(CN(C)C)C2=O)ccc1OC(=O)c1ccccc1` (stereo not drawn), the TGI in the test on DLD-1 colon was 16.1 µM; with DMS 273 small cell lung, 27.4 µM; in the test on HOP-18 NSCLC, 30.9 µM; in the test on KM20L2 colon it was 30.3 µM; in the test on LXFL 529 NSCLC, 9 µM; in the test with M19-MEL melanoma, 24.7 µM. Also, the TGI in the test on RXF-631 renal came out at 23.6 µM; with XF 498 CNS, 34.6 µM.
With `C/C(=N\NC(N)=S)C(CN(CC(C)C)CC(C)C)C(=O)Nc1ccc(C)cc1C` (stereo not drawn), the TGI in the test with DLD-1 colon, in the test with DMS 273 small cell lung, in the test with HOP-18 NSCLC, in the test with KM20L2 colon, in the test with LXFL 529 NSCLC and in the test on M19-MEL melanoma was more than 100 µM each time. Further, the TGI in the test on XF 498 CNS is more than 100 µM.
Regarding `Cc1cc(S(=O)(=O)O)c(NC(=O)C(=O)C2C=CCS2(=O)=O)cc1Cl` (stereo not drawn), the TGI with DLD-1 colon, with DMS 273 small cell lung, in the test with HOP-18 NSCLC, with KM20L2 colon, in the test on LXFL 529 NSCLC and in the test on M19-MEL melanoma was more than 100 µM each time. This molecule came in with a TGI with XF 498 CNS of more than 100 µM.
On to `N#C[S-].[Nd+3].c1ccc(-c2ccccn2)nc1.c1ccc(-c2ccccn2)nc1.c1ccc(-c2ccccn2)nc1`, for which the GI50 was 3.45 µM in the test with DLD-1 colon, 3.23 µM in the test with DMS 273 small cell lung, 2.38 µM in the test with KM20L2 colon and 9.78 µM in the test on M19-MEL melanoma. Besides, the TGI was more than 100 µM in the test with DLD-1 colon, 19.5 µM with DMS 273 small cell lung, 6.08 µM in the test with KM20L2 colon and 54 µM in the test on M19-MEL melanoma.
With `O=C1c2c(n(Cc3ccccc3)c(=O)n2Cc2ccccc2)C(=O)N1Cc1ccccc1`, the TGI with DLD-1 colon, in the test on DMS 273 small cell lung, with HOP-18 NSCLC, with KM20L2 colon, in the test on LXFL 529 NSCLC and with M19-MEL melanoma was more than 100 µM each time. The TGI in the test with RXF-631 renal was more than 100 µM; in the test on XF 498 CNS it was 98.5 µM.
Consider `CCOC(=O)C(=Cc1ccc(C(=O)OC)cc1)C(=O)OCC`, for which the TGI turned out to be 4.46 µM with DLD-1 colon; 3.9 µM in the test on DMS 273 small cell lung; 10.7 µM in the test with HOP-18 NSCLC; 14.1 µM in the test with KM20L2 colon; 3.62 µM with LXFL 529 NSCLC; 10.2 µM with M19-MEL melanoma.

These data come from PubChem BioAssay (NCI).
